In ChEMBL document CHEMBL1137885, “P4 and P1' optimization of bicycloproline P2 bearing tetrapeptidyl alpha-ketoamides as HCV protease inhibitors” (Bioorg Med Chem Lett, 2004):

System: Huh-7
Assay: Cytotoxic concentration against Huh-7 liver cells in XTT cytotoxicity assay
Format: functional
Settings: Homo sapiens
`CCC[C@H](NC(=O)[C@@H]1C2CCCC2CN1C(=O)[C@@H](NC(=O)[C@@H](NC(=O)c1cnccn1)c1ccccc1)C(C)(C)C)C(=O)C(=O)NC1CC1` (stereo partly drawn) showed a CC50 of 58.6 µM. For `CCC[C@H](NC(=O)[C@@H]1C2CCCC2CN1C(=O)[C@@H](NC(=O)[C@@H](NC(=O)c1cnccn1)[C@@H](C)CC)C(C)(C)C)C(=O)C(=O)NC1CC1` (stereo partly drawn), the CC50 was > 100 µM. In the case of `CCC[C@H](NC(=O)[C@@H]1C2CCCC2CN1C(=O)[C@@H](NC(=O)[C@@H](NC(=O)c1cnccn1)[C@@H](C)OC)C(C)(C)C)C(=O)C(=O)NC1CC1` (stereo partly drawn), the CC50 is reported as > 100 µM.

Molecular target: Plasminogen (Homo sapiens, UniProt P00747)
Sequence (P00747 97-580 limits assumed): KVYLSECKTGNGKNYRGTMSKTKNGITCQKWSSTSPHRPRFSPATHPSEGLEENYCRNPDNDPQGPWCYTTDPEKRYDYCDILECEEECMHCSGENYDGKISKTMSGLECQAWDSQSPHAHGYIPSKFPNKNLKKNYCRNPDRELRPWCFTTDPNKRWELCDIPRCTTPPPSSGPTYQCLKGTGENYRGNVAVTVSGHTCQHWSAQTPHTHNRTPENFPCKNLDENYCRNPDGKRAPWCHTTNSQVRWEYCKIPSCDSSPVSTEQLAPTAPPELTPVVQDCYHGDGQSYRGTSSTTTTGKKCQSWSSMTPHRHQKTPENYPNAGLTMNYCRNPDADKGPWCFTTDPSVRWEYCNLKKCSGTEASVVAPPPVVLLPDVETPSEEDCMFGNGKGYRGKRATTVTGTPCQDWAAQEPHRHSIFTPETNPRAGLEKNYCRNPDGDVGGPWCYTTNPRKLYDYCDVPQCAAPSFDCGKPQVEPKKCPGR
Sequence (P00747 581-810 limits assumed): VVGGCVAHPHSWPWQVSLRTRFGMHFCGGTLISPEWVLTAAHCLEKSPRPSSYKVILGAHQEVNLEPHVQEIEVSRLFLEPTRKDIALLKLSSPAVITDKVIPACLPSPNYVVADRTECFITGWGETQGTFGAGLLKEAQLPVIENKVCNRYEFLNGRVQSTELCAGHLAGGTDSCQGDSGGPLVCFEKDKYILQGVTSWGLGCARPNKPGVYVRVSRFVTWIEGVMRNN
Assay: Binding affinity towards human plasmin
Settings: not given
In the case of `CCC[C@H](NC(=O)[C@@H]1C2CCCC2CN1C(=O)[C@@H](NC(=O)[C@@H](NC(=O)c1cnccn1)[C@@H](C)CC)C(C)(C)C)C(=O)C(=O)NC1CC1` (stereo partly drawn), the Ki is reported as > 50 µM. In the case of `CCC[C@H](NC(=O)[C@@H]1C2CCCC2CN1C(=O)[C@@H](NC(=O)[C@@H](NC(=O)c1cnccn1)[C@@H](C)OC)C(C)(C)C)C(=O)C(=O)NC1CC1` (stereo partly drawn), the Ki is reported as > 50 µM.

Molecular target: Trypsin (Homo sapiens, UniProt P07477+P07478+P35030)
Assay: Binding affinity towards human trypsin
Format: protein assay
Settings: not given
For `CCC[C@H](NC(=O)[C@@H]1C2CCCC2CN1C(=O)[C@@H](NC(=O)[C@@H](NC(=O)c1cnccn1)[C@@H](C)CC)C(C)(C)C)C(=O)C(=O)NC1CC1` (stereo partly drawn), the Ki was > 50 µM. In the case of `CCC[C@H](NC(=O)[C@@H]1C2CCCC2CN1C(=O)[C@@H](NC(=O)[C@@H](NC(=O)c1cnccn1)[C@@H](C)OC)C(C)(C)C)C(=O)C(=O)NC1CC1` (stereo partly drawn), the Ki is reported as > 50 µM.

System: Huh-7
Assay: Ratio of CC50 to that of IC50 value
Format: functional, Homo sapiens
Settings: not given
Work on `CCC[C@H](NC(=O)[C@@H]1C2CCCC2CN1C(=O)[C@@H](NC(=O)[C@@H](NC(=O)c1cnccn1)c1ccccc1)C(C)(C)C)C(=O)C(=O)NC1CC1` (stereo partly drawn) yielded a Ratio of 21. In the case of `CCC[C@H](NC(=O)[C@@H]1C2CCCC2CN1C(=O)[C@@H](NC(=O)[C@@H](NC(=O)c1cnccn1)[C@@H](C)CC)C(C)(C)C)C(=O)C(=O)NC1CC1` (stereo partly drawn), the Ratio is reported as >69. In the case of `CCC[C@H](NC(=O)[C@@H]1C2CCCC2CN1C(=O)[C@@H](NC(=O)[C@@H](NC(=O)c1cnccn1)[C@@H](C)OC)C(C)(C)C)C(=O)C(=O)NC1CC1` (stereo partly drawn), the Ratio is reported as >22.

Molecular target: Prothrombin (Homo sapiens, UniProt P00734)
Assay: Binding affinity towards human thrombin
Settings: not given
With `CCC[C@H](NC(=O)[C@@H]1C2CCCC2CN1C(=O)[C@@H](NC(=O)[C@@H](NC(=O)c1cnccn1)[C@@H](C)CC)C(C)(C)C)C(=O)C(=O)NC1CC1` (stereo partly drawn) the Ki was > 50 µM. With `CCC[C@H](NC(=O)[C@@H]1C2CCCC2CN1C(=O)[C@@H](NC(=O)[C@@H](NC(=O)c1cnccn1)[C@@H](C)OC)C(C)(C)C)C(=O)C(=O)NC1CC1` (stereo partly drawn) the Ki was > 50 µM.

Molecular target: Plasma kallikrein (Homo sapiens, UniProt P03952)
Sequence (P03952 20-390 limits assumed): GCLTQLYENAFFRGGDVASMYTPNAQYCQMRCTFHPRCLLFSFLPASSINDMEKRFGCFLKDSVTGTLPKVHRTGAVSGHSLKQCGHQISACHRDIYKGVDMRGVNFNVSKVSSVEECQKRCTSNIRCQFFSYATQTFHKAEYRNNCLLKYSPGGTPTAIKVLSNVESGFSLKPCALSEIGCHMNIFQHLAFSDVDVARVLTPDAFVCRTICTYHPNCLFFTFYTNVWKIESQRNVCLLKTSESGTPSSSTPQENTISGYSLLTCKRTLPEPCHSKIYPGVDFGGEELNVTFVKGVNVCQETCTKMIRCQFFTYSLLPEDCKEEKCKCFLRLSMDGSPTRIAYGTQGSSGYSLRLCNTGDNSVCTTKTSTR
Sequence (P03952 391-638 limits assumed): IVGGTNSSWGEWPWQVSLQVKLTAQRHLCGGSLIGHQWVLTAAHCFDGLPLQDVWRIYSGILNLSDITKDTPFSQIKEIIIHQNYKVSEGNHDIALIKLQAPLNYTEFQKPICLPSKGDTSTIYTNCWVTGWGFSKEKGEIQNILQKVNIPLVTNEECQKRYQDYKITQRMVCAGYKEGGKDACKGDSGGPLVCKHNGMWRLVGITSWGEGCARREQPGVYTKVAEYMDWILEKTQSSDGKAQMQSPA
Assay: Binding affinity towards human kallikrein
Settings: not given
For `CCC[C@H](NC(=O)[C@@H]1C2CCCC2CN1C(=O)[C@@H](NC(=O)[C@@H](NC(=O)c1cnccn1)[C@@H](C)CC)C(C)(C)C)C(=O)C(=O)NC1CC1` (stereo partly drawn), the Ki was > 50 µM. For `CCC[C@H](NC(=O)[C@@H]1C2CCCC2CN1C(=O)[C@@H](NC(=O)[C@@H](NC(=O)c1cnccn1)[C@@H](C)OC)C(C)(C)C)C(=O)C(=O)NC1CC1` (stereo partly drawn), the Ki was > 50 µM.

Molecular target: Cathepsin B (Homo sapiens, UniProt P07858)
Assay: Binding affinity towards human cathepsin B
Settings: not given
With `CCC[C@H](NC(=O)[C@@H]1C2CCCC2CN1C(=O)[C@@H](NC(=O)[C@@H](NC(=O)c1cnccn1)[C@@H](C)CC)C(C)(C)C)C(=O)C(=O)NC1CC1` (stereo partly drawn) the Ki was 10 µM. For `CCC[C@H](NC(=O)[C@@H]1C2CCCC2CN1C(=O)[C@@H](NC(=O)[C@@H](NC(=O)c1cnccn1)[C@@H](C)OC)C(C)(C)C)C(=O)C(=O)NC1CC1` (stereo partly drawn), the Ki was 7.3 µM.

Molecular target: Chymotrypsinogen B (Homo sapiens, UniProt P17538)
Sequence (P17538 34-164 limits assumed, other chains not shown): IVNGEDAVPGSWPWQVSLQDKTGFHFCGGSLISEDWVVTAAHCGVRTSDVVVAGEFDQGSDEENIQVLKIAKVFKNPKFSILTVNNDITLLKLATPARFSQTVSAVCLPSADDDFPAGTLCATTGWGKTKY
Sequence (P17538 167-263 limits assumed, other chains not shown): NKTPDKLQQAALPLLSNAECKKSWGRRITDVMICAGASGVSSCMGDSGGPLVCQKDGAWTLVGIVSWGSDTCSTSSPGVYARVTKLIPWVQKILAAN
Assay: Binding affinity towards human Chymotrypsinogen
Settings: not given
In the case of `CCC[C@H](NC(=O)[C@@H]1C2CCCC2CN1C(=O)[C@@H](NC(=O)[C@@H](NC(=O)c1cnccn1)[C@@H](C)CC)C(C)(C)C)C(=O)C(=O)NC1CC1` (stereo partly drawn), the Ki is reported as > 50 µM. In the case of `CCC[C@H](NC(=O)[C@@H]1C2CCCC2CN1C(=O)[C@@H](NC(=O)[C@@H](NC(=O)c1cnccn1)[C@@H](C)OC)C(C)(C)C)C(=O)C(=O)NC1CC1` (stereo partly drawn), the Ki is reported as > 50 µM.

Molecular target: NS3 (Hepatitis C virus, UniProt A3EZJ3)
Sequence (A3EZJ3 whole entry): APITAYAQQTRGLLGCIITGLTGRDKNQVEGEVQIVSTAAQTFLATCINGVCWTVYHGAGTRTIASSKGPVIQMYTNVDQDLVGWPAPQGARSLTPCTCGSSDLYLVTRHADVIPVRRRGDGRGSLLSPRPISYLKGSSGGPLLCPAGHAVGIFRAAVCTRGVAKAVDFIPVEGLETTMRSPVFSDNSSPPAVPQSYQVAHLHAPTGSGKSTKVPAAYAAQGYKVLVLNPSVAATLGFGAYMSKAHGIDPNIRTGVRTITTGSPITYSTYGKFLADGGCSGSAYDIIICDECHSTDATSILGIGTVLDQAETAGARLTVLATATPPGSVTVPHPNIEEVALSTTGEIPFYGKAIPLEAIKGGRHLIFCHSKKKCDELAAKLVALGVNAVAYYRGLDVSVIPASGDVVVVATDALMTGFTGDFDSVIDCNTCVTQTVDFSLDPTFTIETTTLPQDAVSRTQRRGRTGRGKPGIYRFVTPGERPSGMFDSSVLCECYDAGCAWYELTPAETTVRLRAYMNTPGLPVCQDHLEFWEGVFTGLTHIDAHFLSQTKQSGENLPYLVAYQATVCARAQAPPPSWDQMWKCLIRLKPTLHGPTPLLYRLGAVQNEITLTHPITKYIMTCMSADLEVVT
Assay: Inhibition of HCV NS3 protease in the pNA based inhibition assay
Design: species or system Hepacivirus hominis
Settings: not given
`CCC[C@H](NC(=O)[C@@H]1C2CCCC2CN1C(=O)[C@@H](NC(=O)[C@@H](NC(=O)c1cnccn1)c1ccccc1)C(C)(C)C)C(=O)C(=O)NC1CC1` (stereo partly drawn) gave a Ki of 0.65 µM. `CCC[C@H](NC(=O)[C@@H]1C2CCCC2CN1C(=O)[C@@H](NC(=O)[C@@H](NC(=O)c1cnccn1)[C@@H](C)CC)C(C)(C)C)C(=O)C(=O)NC1CC1` (stereo partly drawn) gave a Ki of 0.08 µM. Compound `CCC[C@H](NC(=O)[C@@H]1C2CCCC2CN1C(=O)[C@@H](NC(=O)[C@@H](NC(=O)c1cnccn1)[C@@H](C)OC)C(C)(C)C)C(=O)C(=O)NC1CC1` (stereo partly drawn) has a Ki of 0.15 µM.

System: Hepatitis C virus
Assay: Inhibitory concentration against hepatitis C virus in replicon assay
Format: functional, organism-based, Hepacivirus hominis
Settings: not given
In the case of `CCC[C@H](NC(=O)[C@@H]1C2CCCC2CN1C(=O)[C@@H](NC(=O)[C@@H](NC(=O)c1cnccn1)c1ccccc1)C(C)(C)C)C(=O)C(=O)NC1CC1` (stereo partly drawn), the IC50 is reported as 2.81 µM. For `CCC[C@H](NC(=O)[C@@H]1C2CCCC2CN1C(=O)[C@@H](NC(=O)[C@@H](NC(=O)c1cnccn1)[C@@H](C)CC)C(C)(C)C)C(=O)C(=O)NC1CC1` (stereo partly drawn), the IC50 was 1.44 µM. In the case of `CCC[C@H](NC(=O)[C@@H]1C2CCCC2CN1C(=O)[C@@H](NC(=O)[C@@H](NC(=O)c1cnccn1)[C@@H](C)OC)C(C)(C)C)C(=O)C(=O)NC1CC1` (stereo partly drawn), the IC50 is reported as 4.35 µM.

Molecular target: not listed separately
Assay: Selectivity for HCV NS3 over human elastase
Settings: not given
`CCC[C@H](NC(=O)[C@@H]1C2CCCC2CN1C(=O)[C@@H](NC(=O)[C@@H](NC(=O)c1cnccn1)[C@@H](C)CC)C(C)(C)C)C(=O)C(=O)NC1CC1` (stereo partly drawn) showed a selectivity ratio of 36. With `CCC[C@H](NC(=O)[C@@H]1C2CCCC2CN1C(=O)[C@@H](NC(=O)[C@@H](NC(=O)c1cnccn1)[C@@H](C)OC)C(C)(C)C)C(=O)C(=O)NC1CC1` (stereo partly drawn) the selectivity ratio was 126.

Molecular target: Procathepsin L (Homo sapiens, UniProt P07711)
Sequence (P07711 whole entry): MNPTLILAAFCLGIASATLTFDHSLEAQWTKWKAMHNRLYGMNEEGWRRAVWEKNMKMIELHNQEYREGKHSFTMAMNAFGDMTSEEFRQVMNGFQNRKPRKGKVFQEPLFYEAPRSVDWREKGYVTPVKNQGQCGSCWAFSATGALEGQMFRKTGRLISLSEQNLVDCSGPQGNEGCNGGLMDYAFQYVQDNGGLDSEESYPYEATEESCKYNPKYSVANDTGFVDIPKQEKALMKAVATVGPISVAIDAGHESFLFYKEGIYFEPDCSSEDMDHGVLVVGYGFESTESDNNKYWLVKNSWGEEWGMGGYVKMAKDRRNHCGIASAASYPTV
Assay: Selectivity for HCV NS3 over human cathepsin L
Settings: not given
For `CCC[C@H](NC(=O)[C@@H]1C2CCCC2CN1C(=O)[C@@H](NC(=O)[C@@H](NC(=O)c1cnccn1)[C@@H](C)CC)C(C)(C)C)C(=O)C(=O)NC1CC1` (stereo partly drawn), the selectivity ratio was 15. For `CCC[C@H](NC(=O)[C@@H]1C2CCCC2CN1C(=O)[C@@H](NC(=O)[C@@H](NC(=O)c1cnccn1)[C@@H](C)OC)C(C)(C)C)C(=O)C(=O)NC1CC1` (stereo partly drawn), the selectivity ratio was 146.
